Measurements taken from ChEMBL document CHEMBL3525970, “Glutaredoxin and thioredoxin can be involved in producing the pharmacologically active metabolite of a thienopyridine antiplatelet agent, prasugrel” (Drug Metab Dispos, 2011).

What was measured:
[1] = tested on: Liver microsome; assay: Drug metabolism in human liver microsomes treated with R-133490 at 1 uM after 1 to 10 mins by LC-MS/MS analysis in presence of human liver cytosol and glutathione; assay type: ADME
[2] = tested on: Liver cytosol; assay: Drug metabolism in human liver cytosol treated with R-133490 at […] 0.05 mM after 5 mins by HPLC analysis in presence of dithiothreitol and 67 ug/ml anti-human thioredoxin antibody; assay type: ADME; settings: 50 µM
[3] = Drug metabolism in potassium phosphate buffer treated with R-133490 at 1 uM after 1 to 10 mins by LC-MS/MS analysis in presence of human liver cytosol and glutathione; assay type: physicochemical
[4] = Drug metabolism in potassium phosphate buffer treated with R-133490 at 1 uM after 1 to 10 mins by LC-MS/MS analysis; assay type: physicochemical

Measured: Drug metabolism

O=C(O)/C=C1/CN(C(C(=O)C2CC2)c2ccccc2F)CCC1S (centres undefined) [R-138727]
metabolite_detected: [1] | [2] | [3] | [4]
